From ChEMBL document CHEMBL1201862, “PubChem BioAssay data set” (2004)
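Five compound concentrations were applied to cells in 96-well plates for 48 hours; endpoints were derived by simple linear interpolation of the resulting dose-response curve. GI50 = concentration required for 50% inhibition of growth.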 Calls of active or inactive are those of the source. Rule as the data show it: active = GI50 up to about 1.1 µM and inactive = higher.

What was measured:
Experiment in all cases: NCI anticancer screen, dose series, 48 h
CAKI-1 = system: CAKI-1
OVCAR-8 = system: OVCAR-8
CCRF-CEM = system: CCRF-CEM
HT-29 = system: HT-29
SF-295 = system: SF-295
A498 = system: A498
MDA-MB-435 = system: MDA-MB-435
TK-10 = system: TK-10
IGROV-1 = system: IGROV-1
786-0 = system: 786-0
MDA-MB-231 = system: MDA-MB-231
M14 = system: M14
PC-3 = system: PC-3
SK-MEL-5 = system: SK-MEL-5
SR = system: SR
HCT-15 = system: HCT-15
DU-145 = system: DU-145
BT-549 = system: BT-549
MDA-N = system: MDA-N
Hs-578T = system: Hs-578T
NCI-H226 = system: NCI-H226
SK-MEL-28 = system: SK-MEL-28
HCT-116 = system: HCT-116
RPMI-8226 = system: RPMI-8226
SNB-19 = system: SNB-19
SW-620 = system: SW-620
LOX IMVI = system: LOX IMVI
SK-OV-3 = system: SK-OV-3
UO-31 = system: UO-31
ACHN = system: ACHN
Malme-3M = system: Malme-3M
NCI-H23 = system: NCI-H23
SF-268 = system: SF-268
NCI/ADR-RES = system: NCI/ADR-RES
RXF 393 = system: RXF 393
SN12C = system: SN12C
OVCAR-4 = system: OVCAR-4
U-251 = system: U-251
KM12 = system: KM12
UACC-257 = system: UACC-257
SNB-75 = system: SNB-75
UACC-62 = system: UACC-62
SF-539 = system: SF-539
OVCAR-3 = system: OVCAR-3
OVCAR-5 = system: OVCAR-5
NCI-H460 = system: NCI-H460
K562 = system: K562
HL-60 = system: HL-60
HCC 2998 = system: HCC 2998
MOLT-4 = system: MOLT-4
EKVX = system: EKVX
MCF7 = system: MCF7
HOP-62 = system: HOP-62
COLO 205 = system: COLO 205
A549 = system: A549
NCI-H522 = system: NCI-H522
SK-MEL-2 = system: SK-MEL-2

## CC(C)C1=C(Cc2ccccc2)C(=O)O/C1=C\c1cc(Cl)c(O)c(Cl)c1
CAKI-1
  GI50: 15.8 µM (inactive)
OVCAR-8
  GI50: 20.5 µM (inactive)
CCRF-CEM
  GI50: 16 µM (inactive)
HT-29
  GI50: 16.9 µM (inactive)
SF-295
  GI50: 16 µM (inactive)
A498
  GI50: 23.7 µM (inactive)
MDA-MB-435
  GI50: 17.3 µM (inactive)
TK-10
  GI50: 26 µM (inactive)
IGROV-1
  GI50: 19.4 µM (inactive)
786-0
  GI50: 17.1 µM (inactive)
MDA-MB-231
  GI50: 16.9 µM (inactive)
M14
  GI50: 19.1 µM (inactive)
PC-3
  GI50: 16.9 µM (inactive)
SK-MEL-5
  GI50: 18.7 µM (inactive)
SR
  GI50: 21.8 µM (inactive)
HCT-15
  GI50: 18.2 µM
DU-145
  GI50: 16 µM (inactive)
BT-549
  GI50: > 10 µM (inactive)
MDA-N
  GI50: 18.3 µM (inactive)
Hs-578T
  GI50: 21.8 µM (inactive)
NCI-H226
  GI50: 20.3 µM (inactive)
SK-MEL-28
  GI50: 18.5 µM (inactive)
HCT-116
  GI50: 18.2 µM (inactive)
RPMI-8226
  GI50: 17.3 µM (inactive)
SNB-19
  GI50: 17.1 µM (inactive)
SW-620
  GI50: 23.1 µM (inactive)
LOX IMVI
  GI50: 17.4 µM (inactive)
SK-OV-3
  GI50: 19.2 µM (inactive)
UO-31
  GI50: 14.1 µM (inactive)
ACHN
  GI50: 17.3 µM (inactive)
Malme-3M
  GI50: 16.7 µM (inactive)
NCI-H23
  GI50: 13.8 µM (inactive)
SF-268
  GI50: 22.6 µM (inactive)
NCI/ADR-RES
  GI50: 23.3 µM (inactive)
RXF 393
  GI50: 16.4 µM (inactive)
SN12C
  GI50: 17.2 µM (inactive)
OVCAR-4
  GI50: 15.6 µM (inactive)
U-251
  GI50: 17.7 µM (inactive)
KM12
  GI50: 16.7 µM (inactive)
UACC-257
  GI50: 16.9 µM (inactive)
SNB-75
  GI50: 20.1 µM (inactive)
UACC-62
  GI50: 16.9 µM (inactive)
SF-539
  GI50: 21.5 µM (inactive)
OVCAR-3
  GI50: 14.2 µM (inactive)
OVCAR-5
  GI50: 21.7 µM (inactive)
NCI-H460
  GI50: 18.2 µM (inactive)
K562
  GI50: 17.4 µM (inactive)
HL-60
  GI50: 16.3 µM (inactive)
HCC 2998
  GI50: 18.6 µM (inactive)
MOLT-4
  GI50: 21.2 µM (inactive)
EKVX
  GI50: 26.1 µM (inactive)
MCF7
  GI50: 27.9 µM (inactive)
HOP-62
  GI50: 20.2 µM (inactive)
COLO 205
  GI50: 17.4 µM (inactive)
A549
  GI50: 21.6 µM (inactive)

## O=c1cc(CBr)c2ccc(O)cc2o1
CAKI-1
  GI50: 43.6 µM (inactive)
OVCAR-8
  GI50: 70.6 µM (inactive)
CCRF-CEM
  GI50: 54.3 µM (inactive)
HT-29
  GI50: 54.5 µM (inactive)
SF-295
  GI50: 45.7 µM (inactive)
A498
  GI50: 25.8 µM (inactive)
MDA-MB-435
  GI50: 39 µM (inactive)
TK-10
  GI50: 88.5 µM (inactive)
IGROV-1
  GI50: 81.8 µM (inactive)
786-0
  GI50: > 100 µM (inactive)
MDA-MB-231
  GI50: > 100 µM (inactive)
M14
  GI50: 59.6 µM (inactive)
NCI-H522
  GI50: 42.1 µM (inactive)
PC-3
  GI50: 62.4 µM (inactive)
SK-MEL-5
  GI50: 45.9 µM (inactive)
SR
  GI50: 63 µM (inactive)
HCT-15
  GI50: 71.4 µM
DU-145
  GI50: 92 µM (inactive)
BT-549
  GI50: 35.1 µM (inactive)
MDA-N
  GI50: 98.9 µM (inactive)
Hs-578T
  GI50: > 100 µM (inactive)
NCI-H226
  GI50: 78 µM (inactive)
SK-MEL-28
  GI50: 80.4 µM (inactive)
HCT-116
  GI50: > 100 µM (inactive)
RPMI-8226
  GI50: 38.5 µM (inactive)
SNB-19
  GI50: 84.3 µM (inactive)
SW-620
  GI50: > 100 µM (inactive)
LOX IMVI
  GI50: > 100 µM (inactive)
SK-OV-3
  GI50: 97.7 µM (inactive)
UO-31
  GI50: 58.5 µM (inactive)
ACHN
  GI50: 66.4 µM (inactive)
Malme-3M
  GI50: 53.7 µM (inactive)
NCI-H23
  GI50: 47.1 µM (inactive)
SF-268
  GI50: > 100 µM (inactive)
NCI/ADR-RES
  GI50: 87.9 µM (inactive)
RXF 393
  GI50: 31.8 µM (inactive)
SN12C
  GI50: 88.7 µM (inactive)
U-251
  GI50: 53.3 µM (inactive)
KM12
  GI50: 54.1 µM (inactive)
UACC-257
  GI50: 64.4 µM (inactive)
SNB-75
  GI50: > 100 µM (inactive)
UACC-62
  GI50: 55.3 µM (inactive)
SF-539
  GI50: > 100 µM (inactive)
OVCAR-3
  GI50: 32 µM (inactive)
OVCAR-5
  GI50: 8.39 µM (inactive)
NCI-H460
  GI50: 63.5 µM (inactive)
K562
  GI50: 69.8 µM (inactive)
SK-MEL-2
  GI50: > 100 µM (inactive)
HL-60
  GI50: 48.3 µM (inactive)
HCC 2998
  GI50: 76.6 µM (inactive)
MOLT-4
  GI50: 60 µM (inactive)
EKVX
  GI50: 21.7 µM (inactive)
MCF7
  GI50: 69.7 µM (inactive)
HOP-62
  GI50: 17 µM (inactive)
COLO 205
  GI50: > 100 µM (inactive)
A549
  GI50: 92.5 µM (inactive)
